Data published in US5574026A, “Methods for inhibiting angiogenesis proliferation of endothelial or tumor cells and tumor growth” (American Cyanamid Company, priority 1994, dated 1996).
Counter-ions that a name gives are not always drawn. Like-named read-outs stand apart in the source and are kept apart here.

Columns and labels:
[1] = system: Adult Bovine Aortic Endothelial (ABAE) cell line; assay: Antiproliferative activity in Adult Bovine Aortic Endothelial (ABAE) cell line, PROTOCOL 3 (4 days, cell count); assay type: cell-based; details: for IC50: Bos taurus, 96 h
Procedure: (§1) The antiproliferative activity of the compounds of Formula I in an Adult Bovine Aortic Endothelial (ABAE) cell line and in Human Tumor cells lines is evaluated in three similar assays that measure growth inhibition. The assays are identified as follows:
(§2) PROTOCOLS 1, 2, and 3 are described in greater detail hereinbelow. In general, according to PROTOCOLS 1 and 2, the target ABAE and/or Human Tumor cells are exposed to the compounds of Formula I for 48 hours. PROTOCOL 3 exposes ABAE cells to the compounds for 4 days. A detailed description of the Protocols is as follows:
Antiproliferative Activity in Adult Bovine Aortic Endothelial (ABAE) Cell Line
ABAE cells are grown in DMEM media (Mediatech, Washington, D.C.) supplemented with 10% calf serum (Hyclone). ABAE cells are plated in 24-well dishes at 8,000 cells/well, followed by the addition of increasing concentrations of 7-halogen-9-[hydrogen or [(substituted glycyl)amido]]-6-demethyl-6-deoxytetracycline. After four days, the cells are detached and counted. […] The growth inhibition (I) as % of control is calculated as follows: [formula] wherein: Nc is the number of cells in untreated wells;
Nt is the number of cells in treated wells;
No is the number of plated cells.
IC50 of growth inhibition is determined from the sets of I values plotted by Kaleidograph software (Abelbeck Software).
Table 1 presents the results depicting the antiproliferative activity of the compounds of Formula I against an ABAE cell line, as evaluated by PROTOCOL 2 and PROTOCOL 3. The results are presented in terms of IC50 and are as follows.

A2780/DDP = assay: Antiproliferative activity in human tumor cell lines, PROTOCOL 1 and PROTOCOL 2; assay type: cell-based
Procedure: (§3) The assays are identified as follows: PROTOCOLS 1, 2, and 3 are described in greater detail hereinbelow. In general, according to PROTOCOLS 1 and 2, the target ABAE and/or Human Tumor cells are exposed to the compounds of Formula I for 48 hours. PROTOCOL 3 exposes ABAE cells to the compounds for 4 days. A detailed description of the Protocols is as follows: Antiproliferative Activity in Human Tumor Cell Lines The antiproliferative activity of the compounds of Formula I of the present invention is evaluated in a panel comprised of human tumor cell lines. […] Cultures are renewed after 20 passages with cells from a fresh stock of batch-frozen early passage cells. Cell lines are routinely checked for mycoplasma contamination (Genprobe). In a laminar flow hood, cells (1-5×10^4) are plated into 96-well microtiter plates in a volume of 0.1 ml/well with a bulk microtiter dispenser (Denley). […] Compounds are added using a Tomtec dispenser which simultaneously dispenses from one 96-well plate, containing the drug dilutions, to the plates containing the cells. After two days of continuous drug exposure, 50% cold trichloroacetic acid (TCA) is added to 10% final concentration to fix the cells, and after 60 minutes at 4° C., the TCA is aspirated and the plates are washed 5 times with deionized water using a microtiter plate washer. […] A 0.4% solution of the dye, sulforhodamine B, in glacial acetic acid is added to the plates, and the plates are washed 5 times with 1% glacial acetic acid using the automatic plate washed. The bound stain is solubilized with 0.1 ml of 10 mMTris base. The optical densities are read from an automatic spectrophotometric plate reader (Dynatech) directly to a main frame computer (VAX 8600). Positive controls, that include standard chemotherapeutic drugs (i.e., adriamycin, cisplatin, etc.), are included in every experiment. Background optical density measurements (complete media--cells, and complete media+drug-cells) are automatically subtracted from the appropriate control and test wells. Mean values and standard errors are determined from duplicate wells. A measure is also made of the optical density at time when the drugs are added. The number of cells after treatment (P), as % of control, is calculated for every concentration of drug, as follows: [formula] wherein: T is optical density measurement for treated cells after 48 hours; C is optical density measurement for untreated cells after 48 hours; Co is optical density measurement for cells at the time of drug addition. IC50 of Growth inhibition is calculated from the sets of P values using the RS-1 data package (BBN Software). Antiproliferative Activity in Human Tumor and Adult Bovine Aortic Endothelial Cell Lines (ABAE) The antiproliferative activity of the compounds of Formula I is evaluated in a panel comprised of human tumor cell lines as listed in Protocol 1 as well as an adult bovine aortic endothelial cell line (ABAE). This assay is a modification of PROTOCOL 1.

A2780S = assay: as above; assay type: cell-based
Procedure: as §3

HTB 161 = assay: as above; assay type: cell-based; details: HTB 161, 48 hours
Procedure: as §3

CACO2 = assay: as above; assay type: cell-based; details: Caco-2, colon tumor cell line CACO2, 48 hours, read-out: IC50
Procedure: as §1, §2
(§4) Antiproliferative Activity in Human Tumor Cell Lines
(§5) The antiproliferative activity of the compounds of Formula I of the present invention is evaluated in a panel comprised of human tumor cell lines. The human tumor cell lines are from
(§6) 2) Colon tumors: MIP, CACO2, and SW620.
(§7) All cell lines are maintained in log phase in RPMI 1640 media, supplemented with 5% fetal calf serum, penicillin/streptomycin and 2 mM L-glutamine. Cultures are renewed after 20 passages with cells from a fresh stock of batch-frozen early passage cells. Cell lines are routinely checked for mycoplasma contamination (Genprobe). In a laminar flow hood, cells (1-5×10^4) are plated into 96-well microtiter plates in a volume of 0.1 ml/well with a bulk microtiter dispenser (Denley). […] At this concentration, dimethylsulfoxide has no effect on cell growth. Compounds are added using a Tomtec dispenser which simultaneously dispenses from one 96-well plate, containing the drug dilutions, to the plates containing the cells. After two days of continuous drug exposure, 50% cold trichloroacetic acid (TCA) is added to 10% final concentration to fix the cells, and after 60 minutes at 4° C., the TCA is aspirated and the plates are washed 5 times with deionized water using a microtiter plate washer. The number of cells on the plate are quantitated using a protein dye-binding assay (Monks et al., 1991). A 0.4% solution of the dye, sulforhodamine B, in […] is added to the plates, and the plates are washed 5 times with 1% glacial acetic acid using the automatic plate washed. The bound stain is solubilized with 0.1 ml of 10 mMTris base. The optical densities are read from an automatic spectrophotometric plate reader (Dynatech) directly to a main frame computer (VAX 8600).
(§8) Positive controls, that include standard chemotherapeutic drugs (i.e., adriamycin, cisplatin, etc.), are included in every experiment.
(§9) Background optical density measurements (complete media--cells, and complete media+drug-cells) are automatically subtracted from the appropriate control and test wells. Mean values and standard errors are determined from duplicate wells. A measure is also made of the optical density at time when the drugs are added. The number of cells after treatment (P), as % of control, is calculated for every concentration of drug, as follows: [formula] wherein: T is optical density measurement for treated cells after 48 hours;
(§10) C is optical density measurement for untreated cells after 48 hours;
(§11) Co is optical density measurement for cells at the time of drug addition.
(§12) IC50 of Growth inhibition is calculated from the sets of P values using the RS-1 data package (BBN Software).
(§13) Antiproliferative Activity in Human Tumor and Adult Bovine Aortic Endothelial Cell Lines (ABAE)
(§14) The antiproliferative activity of the compounds of Formula I is evaluated in a panel comprised of human tumor cell lines as listed in Protocol 1 as well as an adult bovine aortic endothelial cell line (ABAE). This assay is a modification of PROTOCOL 1. The modifications include:
(§15) 1) each concentration for each compound is tested in a single well;
(§16) 2) compounds are tested at 20, 4, 0.8, 0.16 microgram/ml and additionally in some experiments at 100 and 0.32 microgram/ml;
(§17) 3) samples are pipetted into a 96-well plate for each of the cell lines by a Beckman Biomek 1000 SL robot; […]

MIP = assay: as above; assay type: cell-based; details: colon tumor cell line MIP, 48 hours
Procedure: as §1, §2, §4, §5, §6, §7, §8, §9, §10, §11, §12, §13, §14, §15, §16, §17

SW620 = assay: as above; assay type: cell-based
Procedure: as §1, §2, §4, §5, §6, §7, §8, §9, §10, §11, §12, §13, §14, §15, §16, §17

Human Tumor cell lines = assay: Antiproliferative activity in panel of human tumor cell lines (average / panel as a whole), PROTOCOL 1 and PROTOCOL 2; assay type: cell-based; details: Homo sapiens; average over the tumor cell lines tested
Procedure: as §1, §2, §4, §5, §6, §7, §8, §9, §10, §11, §12, §13, §14, §15, §16, §17

angiogenesis = details: Brem et al; in words; cited from earlier work
[2] = ovarian tumor cell line A2780S, 48 hours, read-out: IC50
[3] = SW-620, colon tumor cell line SW620, 48 hours, read-out: IC50

| Structure (SMILES) | IC50 (A2780S; [2]) | IC50 (HTB 161) | IC50 (MIP) | IC50 (SW620; [3]) | IC50 (Human Tumor cell lines) | inhibition of angiogenesis (angiogenesis) | other results |
| --- | --- | --- | --- | --- | --- | --- | --- |
| CN(C)[C@@H]1C(O)=C(C(N)=O)C(=O)[C@@]2(O)C(O)=C3C(=O)c4c(O)c(NC(=O)CN5CCCCC5)cc(I)c4CC3CC12 (stereo partly drawn) [Example 6, [7S-(7α,10aα)]-N-9-[(Aminocarbonyl)-7-(dimethylamino)-5,5a,6,6a,7,10,10a,12-octahydro-1,8,10a,11-tetrahydroxy-4-iodo-10,12-dioxo-2-naphthacenyl]-1-piperidine-acetamide dihydrochloride] | 0.2 µg/mL | 0.2 µg/mL | 0.6 µg/mL | 0.4 µg/mL | 1 µg/mL | – | IC50 ([1]; ABAE cells, PROTOCOL 3, 4 days, read-out: IC50 PROTOCOL 3): 2.5 µg/mL; IC50 ([1]; FIG. 1, ABAE, 4 day assay (Protocol 3), read-out: inhibits 50% of cell growth at): ~2 µg/mL; activity upon incubation with cells ([1]; FIG. 1, 4 day assay (Protocol 3), in words): retains its activity; activity in preventing the proliferation of ABAE cells compared to Minocycline ([1]; Table 1, in words): increased activity; IC50 (A2780/DDP; ovarian tumor cell line /DDP, 48 hours, read-out: IC50): 0.8 µg/mL; IC50 (CACO2): 4 µg/mL |
| CN(C)[C@@H]1C(O)=C(C(N)=O)C(=O)[C@@]2(O)C(O)=C3C(=O)c4c(O)ccc(Cl)c4[C@@H](O)[C@H]3C[C@@H]12 [Demeclocycline] | – | – | – | – | – | useful as inhibitors of angiogenesis | – |
| CN(C)[C@@H]1C(O)=C(C(N)=O)C(=O)[C@@]2(O)C(O)=C3C(=O)c4c(O)c(NC(=O)CN5CCCC5)cc(I)c4CC3CC12 (stereo partly drawn) [Example 5, [7S-(7α,10aα)]-N-9-[(Aminocarbonyl)-7-(dimethylamino)-5,5a,6,6a,7,10,10a,12-octahydro-1,8,10a,11-tetrahydroxy-4-iodo-10,12-dioxo-2-naphthacenyl]-1-pyrrolidineacetamide dihydrochloride] | – | 3 µg/mL | 4 µg/mL | – | 3.8 µg/mL | – | IC50 (A2780/DDP; 48 h): 4 µg/mL; IC50 (A2780S; A2780S, 48 h): 4 µg/mL; IC50 (SW620; SW-620, 48 h): 4 µg/mL |
| CN(C)[C@@H]1C(O)=C(C(=O)NCNCCCC[C@H](N)C(=O)O)C(=O)[C@@]2(O)C(O)=C3C(=O)c4c(O)cccc4[C@@](C)(O)[C@H]3C[C@@H]12 [Lymecycline] | – | – | – | – | – | useful as inhibitors of angiogenesis | – |
| CN(C)[C@@H]1C(O)=C(C(N)=O)C(=O)[C@@]2(O)C(O)=C3C(=O)c4c(O)ccc(Cl)c4[C@@](C)(O)[C@H]3C[C@@H]12 [Chlortetracycline] | – | – | – | – | – | useful as inhibitors of angiogenesis | – |
| CN(C)[C@@H]1C(O)=C(C(N)=O)C(=O)[C@@]2(O)C(O)=C3C(=O)c4c(O)c(NC(=O)CNC5CCCC5)cc(I)c4CC3CC12 (stereo partly drawn) [Example 7, [4S-(4',12aα)]-9-[[(Cyclopentylamino)acetyl]amino]-4-(dimethylamino)-1,4,4a,5,5a,6,11,12a-octahydro-3,10,12,12a-tetrahydroxy-7-iodo-1,11-dioxo-2-maphthacenecarboxamide dihydrochloride] | 2 µg/mL | 1 µg/mL | – | 3 µg/mL | 2 µg/mL | – | – |
